From ChEMBL document CHEMBL3593220, “Antimitotic and antivascular activity of heteroaroyl-2-hydroxy-3,4,5-trimethoxybenzenes” (Bioorg Med Chem, 2015) come the findings set out here.

Structures are written as SMILES. Calls of active or inactive are those of the source. No cut-off for these calls is given here.

One may read the IC50 as the point on the concentration scale where inhibition reaches its midpoint. One may read the inhibition as the drop in the measured response relative to a control, in per cent.

For data set [1], the system named is KB. Put plainly: Antiproliferative activity against human KB cells after 72 hrs by methylene blue assay. Type of data set: functional, cell-based.
Data set [2] is described as follows: Antiproliferative activity against human MKN45 cells after 72 hrs by methylene blue assay. Type of data set: functional, cell-based. To be noted: MKN-45, 72 h.
Data set [3] deals with HT-29. Put plainly: Antiproliferative activity against human HT-29 cells after 72 hrs by methylene blue assay. Type of data set: functional, cell-based.
Data set [4] in a line: Antiproliferative activity against human KB-7d cells expressing MRP after 72 hrs by methylene blue assay. Type of data set: functional, cell-based. To be noted: KB7D.
The target of data set [5] is Tubulin (Bos taurus, UniProt Q6B856+Q862F3). Put plainly: Inhibition of bovine brain tubulin polymerization after 30 mins.
Sequence of Tubulin (Q6B856 whole entry): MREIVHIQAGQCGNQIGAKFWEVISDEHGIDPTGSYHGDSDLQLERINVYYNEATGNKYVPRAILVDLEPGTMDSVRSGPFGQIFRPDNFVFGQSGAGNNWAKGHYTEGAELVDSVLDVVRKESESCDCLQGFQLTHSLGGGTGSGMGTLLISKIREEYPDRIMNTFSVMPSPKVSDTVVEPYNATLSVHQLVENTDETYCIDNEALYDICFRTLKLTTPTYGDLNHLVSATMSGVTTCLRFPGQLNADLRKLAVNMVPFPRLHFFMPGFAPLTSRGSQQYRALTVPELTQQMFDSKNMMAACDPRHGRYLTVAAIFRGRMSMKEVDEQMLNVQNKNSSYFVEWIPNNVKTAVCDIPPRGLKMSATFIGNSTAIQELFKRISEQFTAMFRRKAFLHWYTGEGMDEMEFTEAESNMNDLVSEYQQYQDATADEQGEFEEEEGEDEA
Sequence of Tubulin (Q862F3 whole entry): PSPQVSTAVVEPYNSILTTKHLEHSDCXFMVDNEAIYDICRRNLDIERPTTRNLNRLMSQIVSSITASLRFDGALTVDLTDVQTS
Data set [6] in a line: Toxicity in HUVEC assessed as cell viability at 2500 nM after 4 hrs relative to control. To be noted: human, HUVEC cells; read-out: Activity. It is filed as cell-based.
Data set [7] can be described thus: Toxicity in HUVEC assessed as cell viability at 100 nM after 4 hrs relative to control. To be noted: human, HUVEC cells; read-out: Activity. It is filed as cell-based.
Data set [8] has as its system HUVEC. Put plainly: Antivascular activity in HUVEC assessed as inhibition of VEGF-induced capillary tube formation at 50 nM after 4 hrs by microscopic analysis relative to control. It is filed as functional, Homo sapiens. Also noted: scale not given: the % may be the effect or the level left.
Data set [9] has as its target Tubulin (Homo sapiens) (UniProt P68371+Q9H4B7+P0DPH7+P68366+Q13509+Q71U36+P04350+Q3ZCM7+P07437+P68363+Q9BQE3+Q6PEY2+Q13885+Q9BVA1+Q9BUF5). In words: Displacement of 1 uM of [3H]colchicine from biotin-labeled tubulin (unknown origin) after 2 hrs by scintillation proximity assay. Type of data set: protein-complex assay. Background: Scintillation proximity formats need no separation of bound from free tracer.

The subject of data set [10] is HUVEC. Put plainly: Antivascular activity in HUVEC assessed as inhibition of VEGF-induced capillary tube formation at 500 nM after 4 hrs by microscopic analysis relative to control. It is filed as functional, Homo sapiens. Also on record: scale not given: the % may be the effect or the level left.
The nature of data set [11]: Toxicity in HUVEC assessed as cell viability at 500 nM after 4 hrs relative to control. It is filed as cell-based. To be noted: human, HUVEC cells; read-out: Activity.
Data set [12] in a line: Antiproliferative activity against human KB-VIN10 cells expressing P-gp170/MDR after 72 hrs by methylene blue assay. It is filed as functional, cell-based. To be noted: KB-VIN10, 72 h.
Data set [13] can be described thus: Antiproliferative activity against human KB-S15 cells expressing P-gp170/MDR after 72 hrs by methylene blue assay. To be noted: KB-S15, 72 h. Type of data set: functional, cell-based.
Data set [14] relates to HUVEC. In words: Antivascular activity in HUVEC assessed as inhibition of VEGF-induced capillary tube formation at 100 nM after 4 hrs by microscopic analysis relative to control. Type of data set: functional, Homo sapiens. Also on record: scale not given: the % may be the effect or the level left.
A short description of data set [15]: Toxicity in HUVEC assessed as cell viability at 50 nM after 4 hrs relative to control. Type of data set: cell-based. To be noted: human, HUVEC cells; read-out: Activity.
The test system of data set [16] is HUVEC. In words: Antivascular activity in HUVEC assessed as inhibition of VEGF-induced capillary tube formation at 2500 nM after 4 hrs by microscopic analysis relative to control. Also noted: scale not given: the % may be the effect or the level left. Type of data set: functional, Homo sapiens.
Data set [17] in a line: Toxicity in HUVEC assessed as cell viability at 20 nM after 4 hrs relative to control. Type of data set: cell-based. To be noted: human, HUVEC cells; read-out: Activity.
In data set [18] the test system is HUVEC. In words: Antivascular activity in HUVEC assessed as inhibition of VEGF-induced capillary tube formation at 20 nM after 4 hrs by microscopic analysis relative to control. Type of data set: functional, Homo sapiens. Also noted: scale not given: the % may be the effect or the level left.

As for `COc1ccc2nc(C(=O)c3cc(OC)c(OC)c(OC)c3O)ccc2c1`, the results for the IC50 in [1] and in [2] were 0.23 µM and 1.16 µM, respectively. In addition, the outcome in data set [3] was Active.

The compound `CC(=O)O[C@H]1C(=O)[C@@]2(C)[C@H]([C@H](OC(=O)c3ccccc3)[C@]3(O)C[C@H](OC(=O)[C@H](O)[C@@H](NC(=O)c4ccccc4)c4ccccc4)C(C)=C1C3(C)C)[C@]1(OC(C)=O)CO[C@@H]1C[C@@H]2O` [PACLITAXEL] showed an IC50 in data set [4] of 0.0084 µM.

As to `COc1ccc2c(C(=O)c3cc(OC)c(OC)c(OC)c3O)c[nH]c2c1`, the IC50 is 4.2 µM in data set [5]; 0.0088 µM in data set [1]; 0.0085 µM in data set [4]; 0.0095 µM in [12]; 0.0058 µM in data set [13]; 0.0105 µM in [2]. Further, the viability at 4 h, 2.5 µM in data set [6] was 99%. Besides, the viability at 4 h, 0.1 µM in data set [7] stood at 96%. Besides, the Activity in data set [8] came out at 72%; in [10] it was 0%; in [14], 49%; in data set [16], 0%. Besides, the inhibition in data set [9] was 87.2%. The viability at 4 h, 0.5 µM in data set [11] stood at 93%. Moreover, in data set [3], the outcome was Active. Further, in data set [15], the viability at 4 h, 0.05 µM amounted to 100%.

As to `COc1cc(C(=O)c2ccnc3ccccc23)c(O)c(OC)c1OC`, the values for the IC50 in data set [1] and in [2] were 7.7 µM and 5.96 µM, respectively. Moreover, the outcome in data set [3] was Active.

Turning to `COc1cc([C@@H]2c3cc4c(cc3[C@@H](O[C@@H]3O[C@@H]5CO[C@@H](C)O[C@H]5[C@H](O)[C@H]3O)[C@H]3COC(=O)[C@H]23)OCO4)cc(OC)c1O` [ETOPOSIDE], it took 3.5 µM to reach half-maximal inhibition in [13] (IC50).

As to `COc1cc(C(=O)c2ccc3ncccc3c2)c(O)c(OC)c1OC`, the figures for the IC50 in data set [1] and in data set [2] were 0.0229 µM and 0.116 µM, respectively. The outcome in [3] was Active.

With `CC[C@]1(O)C[C@H]2CN(CCc3c([nH]c4ccccc34)[C@@](C(=O)OC)(c3cc4c(cc3OC)N(C=O)[C@H]3[C@@](O)(C(=O)OC)[C@H](OC(C)=O)[C@]5(CC)C=CCN6CC[C@]43[C@@H]65)C2)C1` [VINCRISTINE], the IC50 in [4] was determined as 0.0015 µM; in data set [13] it was 0.0021 µM.

Consider `COc1ccc(/C=C\c2cc(OC)c(OC)c(OC)c2)cc1O` [COMBRETASTATIN A4], for which the viability at 4 h, 0.02 µM in data set [17] came out at 94%. Moreover, the IC50 in [2] turned out to be 0.0032 µM. The Activity in data set [18] came out at 0%.

Regarding `COc1cc(C(=O)c2ccc3c(ccn3C)c2)c(O)c(OC)c1OC`, the IC50 is 4.9 µM in [5]; 0.033 µM in data set [1]; 0.0182 µM in data set [4]; 0.0208 µM in data set [12]; 0.0162 µM in data set [13]; 0.0937 µM in [2]. In data set [6], the viability at 4 h, 2.5 µM was 95%. Also, in [7], the viability at 4 h, 0.1 µM was 94%. Further, the Activity in data set [8] was determined as 72%; in data set [10], 41%; in data set [14], 53%; in data set [16] it was 0%. The compound further yielded an inhibition in [9] of 84.4%. For the same compound, the viability at 4 h, 0.5 µM in [11] came out at 97%. Besides, in [3], the result was Active. The viability at 4 h, 0.05 µM in data set [15] amounted to 95%.

For `COc1cc(C(=O)c2cccc3c2ccn3C)c(O)c(OC)c1OC`, the IC50 in [5] was 8.2 µM; in [1], 0.0573 µM; in data set [4], 0.04 µM; in [12], 0.0428 µM; in data set [13], 0.0326 µM; in [2] it was 0.0554 µM. In [9], this compound registered an inhibition of 66.3%. Besides, in data set [3], the outcome was Active.
